According to patent US20210284742A1, “METHODS OF TREATING OR PREVENTING MUCORMYCOSIS” (University of Maryland, Baltimore, priority 2018, published 2021):

Experiments:
[1] = tested on: A549 alveolar epithelial cells infected with R. delemar spores; test: Measurement of host cell endocytosis of R. delemar by A549 cells (Uvitex differential fluorescence); type: cell-based, human; conditions: for ability of A549 cells to endocytose R. delemar spores: Ahr inhibitor or Src inhibitor
Experimental: Measurement of host cell endocytosis. 12-mm glass coverslips were seeded with A549 alveolar epithelial cells. […] For controls, host cells will be incubated with DMSO (the solvent used to reconstitute the inhibitor) or 25 μg/ml mouse IgG antibody in parallel. Host cells were then infected with 2×10^5 R. delemar spores. After incubation for 3 h, cells were fixed in 3% paraformaldehyde and stained for 1 h with 1% Uvitex, which specifically binds to chitin in the fungal cell wall. After washing with PBS, coverslips were mounted on a glass slide with a drop of ProLong Gold anti-fade reagent (Molecular Probes) and sealed. The total number of cell-associated organisms (i.e. fungi adhering to the monolayer) per high-powered field were determined by phase-contrast microscopy. The same field will be examined by epifluorescence microscopy, and the number of brightly fluorescent, uninternalized fungi were determined. The number of endocytosed organisms was calculated by subtracting the number of fluorescent fungi from the total number of visible fungi. At least 400 organisms were counted per treatment group in at least 15 different fields per coverslip. Experiments were performed in duplicate or triplicate on at least two separate days.
12-mm glass coverslips in 12 well dishes will be seeded with A549 alveolar epithelial cells. Cells were then pre-treated 1 h with inhibitors. For controls, host cells were incubated with the appropriate amount of diluent used to reconstitute the inhibitor in parallel. Host cells were then infected with 2×10^6 Rdelemar. After incubation for 3 h, cells were fixed in 3% paraformaldehyde and stained for 1 h with 1% Uvitex, which specifically binds to chitin in the fungal cell wall. After washing with PBS, coverslips were mounted on a glass slide with a drop of ProLong Gold anti-fade reagent (Molecular Probes) and sealed. The total number of cell-associated organisms (i.e., fungi adhering to the monolayer) per high-powered field was determined by phase-contrast microscopy. The same exact field was examined by epifluorescence microscopy, and the number of brightly fluorescent, uninternalized fungi will be determined. The number of endocytosed organisms is calculated by subtracting the number of fluorescent organisms from the total number of visible organisms. At least 400 organisms were counted in at least 15 different fields per coverslip. Experiments were performed in duplicate on separate days. Data will be expressed as median f interquartile range.

[2] = tested on: R. delemar; test: Neutropenic mouse model of pulmonary mucormycosis, survival; type: in vivo, mice
Experimental: Murine models of Mucormycosis. Male ICR mice (20-25 g from Envigo) were immunosuppresed by cyclophosphamide (200 mg/kg administered intraperotenually [i.p]) and cortisone acetate (500 mg/kg, adminstered subcutaneously) given on days −2, +3, and +9 relative to infection. […] To control for bacterial infection, immunosuppressed mice received 50 mg/L Baytrial (enrofloxacin: Bayer, Leverkusen, Germany) ad libitum on Day −3 thorough Day 0, after which Baytril was replaced with daily ceftazidime (5 mg/mouse) treatment adminstered subcutaneously through day+13 days post infection. Mice were infected with 2.5×10^5 spores of R. delemar 99-880 in 25 μL PBS given intratracheally as previously described (Luo G, Gebremariam T, Lee H, French S W, Wiederhold N P, Patterson T F, Filler S G, Ibrahim A S. 2013. Efficacy of liposomal amphotericin B and posaconazole in intratracheal models of murine mucormycosis. Antimicrobial agents and chemotherapy 57:3340-7). […] Placebo mice received DMA:PEG300. Survival of mice served as the primary endpoint with moribund mice humanely euthanized. To determine effect of treatment on tissue fungal burden mice were immunosuppressed and infected as above. Gefitinib treatment started 4 post infection and continued through Day +3. On Day +4, mice were sacrificed and lungs and brains, representing primary and secondary target organs (Luo G, Gebremariam T, Lee H, French S W, Wiederhold N P, Patterson T F, Filler S G, Ibrahim A S. 2013. Efficacy of liposomal amphotericin B and posaconazole in intratracheal models of murine mucormycosis. Antimicrobial agents and chemotherapy 57:3340-7), were collected and processed for tissue fungal burden by qPCR (Ibrahim A S, Bowman J C, Avanessian V, Brown K, Spellberg B, Edwards J E, Jr., Douglas C M. 2005. Caspofungin inhibits Rhizopus oryzae 1,3-beta-D-glucan synthase, lowers burden in brain measured by quantitative PCR, and improves survival at a low but not a high dose during murine disseminated zygomycosis. Antimicrobial agents and chemotherapy 49:721-7.) Values are expressed as Log10 spore equivalents per gram tissue.
Statistical Analyses. In vitro experiments were performed in triplicate on two or three separate days. Data were expressed as median±interquartile range. Treatment groups were compared to controls using the Wilcoxon rank-sum test and P values <0.05 were considered significant. For the murine studies, survival of mice was analyzed using the Log Rank test, whereas differences in tissue fungal burden were analyzed by the Wilcoxon Rank Sum test using Graph pad Prism 6. P values of <0.05 were considered significant.

[3] = tested on: A549 cells infected with R. delemar; test: R. delemar-induced A549 cell damage (Pierce LDH assay); type: cell-based, human; conditions: for R. delemar-induced damage of A549 alveolar epithelial cells (LDH assay): pre-treated 1 h, inhibitors present throughout, Inh III 10, AG1478 10 μM, AG825 50 μM, 24 h infection (FIG. 6)
Experimental: Measurement of R. delemar-induced host cell damage. R. delemar-induced A549 cell damage was quantified using the Pierce LDH Assay with slight modifications to the manufacturer's protocol. Briefly, A549 cells were grown in 96-well tissue culture plates for 18-24 hours. […] For controls, host cells will be incubated with DMSO (the solvent used to reconstitute the inhibitor) or 25 μg/ml of mouse IgG antibody in parallel. After 24 hours of incubation at 37° C., 50 μl of the cell culture supernatant was collected from uninfected, infected, and fungi-only control wells and transferred to a 96 well plate to assay for LDH activity. Lysis buffer was added to all infected wells and incubated for 45 min at 37° C. After lysis, 50 μl of cell culture supernatant was transferred to a 96 well plate and used for the LDH Assay Kit per protocol. LDH release was calculated as follows: % Cytotoxicity=[Experimental release−Fungal Cells Spontaneous Control−Host Cells Spontaneous Control]/[Host Cell Maximum Control−Fungal Cells Maximum Control−Host Cells Spontaneous Control]×100. LDH is a cytosolic enzyme but will be released into the cell culture medium upon cell membrane damage. The amount of extracellular LDH is proportional to the amount of cell damage.
(§1) R. delemar-induced A549 cell damage was quantified using the Pierce LDH assay, with slight modifications to the manufacturer's protocol. Briefly, A549 cells were grown in 96-well tissue culture plates for 18 to 24 h. Cells were then pretreated for 1 h with inhibitor and infected with 1×10^6-2×10^6 germlings suspended in 150 μl F-12K plus 10% FBS. For controls, host cells were incubated with the appropriate amount of diluent used to reconstitute the in parallel. After 24 h of incubation at 37° C., 50 μl of the cell culture supernatant was collected from uninfected, infected, and fungus-only control wells and transferred to a 96-well plate to assay for LDH activity. Lysis buffer was added to all infected wells, and the mixture was incubated for 45 min at 37° C. After lysis, 50 μl of cell culture supernatant was transferred to a 96-well plate and used for the LDH assay kit per the protocol. LDH release was calculated as follows: % cytotoxicity=[(experimental release−fungal cell spontaneous control−host cell spontaneous control)/(host cell maximum control−fungal cell maximum control−host cell spontaneous control)]×100. LDH is a cytosolic enzyme but will be released into the cell culture medium upon cell membrane damage. The amount of extracellular LDH is proportional to the amount of cell damage.

[4] = tested on: HUVECs infected with R. delemar; conditions: inhibition of PDGFR phosphorylation; cited from earlier work
[5] = tested on: A549 cells infected with M. circinelloides; test: M. circinelloides-induced damage of A549 cells (LDH assay); type: cell-based, human; conditions: 25 μM Mifepristone overnight and/or 25 μM Gefitinib 1 h, 24 h infection (FIG. 14)
[6] = tested on: A549 cells infected with L. corymbifera; test: L. corymbifera-induced damage of A549 cells (LDH assay); type: cell-based, human; conditions: 25 μM Mifepristone overnight and/or 25 μM Gefitinib 1 h, 24 h infection (FIG. 14)
[7] = tested on: A549 cells infected with C. bertholletiae; test: C. bertholletiae-induced damage of A549 cells (LDH assay); type: cell-based, human; conditions: 25 μM Mifepristone overnight and/or 25 μM Gefitinib 1 h, 24 h infection (FIG. 14)
[8] = tested on: A549 cells infected with R. oryzae; test: R. oryzae-induced damage of A549 cells (LDH assay); type: cell-based, human; conditions: 25 μM Mifepristone overnight and/or 25 μM Gefitinib 1 h, 24 h infection (FIG. 14)
Experimental: as §1, with “Cells were then pretreated for 1 h with inhibitor and infected with 1×10^6-2×10^6 germlings suspended in 150 μl F-12K plus 10% FBS.” left out

Q: Which “ability of A549 cells to endocytose R. delemar spores” value [1] does the source give for `Cc1ccccc1N=Nc1ccc(NC(=O)c2ccnn2C)c(C)c1` [CH-223191] here?
A: Neither of the inhibitors altered

Q: For `CC[C@@H]([C@H](C)O)n1ncn(-c2ccc(N3CCN(c4ccc(OC[C@@H]5CO[C@@](Cn6cncn6)(c6ccc(F)cc6F)C5)cc4)CC3)cc2)c1=O` [posaconazole], which 18-day survival ([2]; delayed treatment beginning 30 h post infection for 6 consecutive days, 10 mg/kg gefitinib, 20 mg/kg posaconazole or both) is on record?
A: 0%

Q: And the “protection from pulmonary mucormycosis, delayed administration” value ([2]; treatment delayed for 30 h post infection, administered alone)?
A: did not

Q: For `COc1cc2ncnc(N3CCN(C(=O)Nc4ccc(Oc5ccccc5)cc4)CC3)c2cc1OC` [PDGFR tyrosine kinase inhibitor III], which “R. delemar-induced damage of A549 alveolar epithelial cells (LDH assay)” value [3] is on record?
A: modestly but significantly reduces

Q: And the “R. delemar-induced damage of HUVECs” value [4]?
A: significantly reduces

Q: With `COc1cc(/C=C(\C#N)C(N)=O)cc(CSc2nc3ccccc3s2)c1O` [AG825] as the molecule, how does the “R. delemar-induced damage of A549 alveolar epithelial cells (LDH assay)” value [3] read?
A: greater reduction in damage

Q: Which “R. delemar invasion / endocytosis” value ([1]; Example 3, 25 μM Mifepristone overnight and/or 25 μM Gefitinib 1 h, 3 h infection (FIG. 13)) does the source give for `CC#C[C@]1(O)CC[C@H]2[C@@H]3CCC4=CC(=O)CCC4=C3[C@@H](c3ccc(N(C)C)cc3)C[C@@]21C` [Mifepristone] here?
A: reduction

Q: What about the M. circinelloides-induced damage [5] of the same molecule?
A: a significant decrease in damage was not seen

Q: And the L. corymbifera-induced damage [6]?
A: significantly decreased

Q: And the C. bertholletiae-induced damage [7]?
A: a significant decrease in damage was not seen

Q: What about the R. oryzae-induced damage [8] of the same molecule?
A: a significant decrease in damage was not seen

Q: What about the “R. delemar-induced damage of alveolar epithelial cells (LDH assay)” value ([3]; Example 3, Mifepristone 25 / Gefitinib 25, 24 h infection, vs vehicle (FIG. 12)) of the same molecule?
A: decrease

Q: For `COc1cc2ncnc(Nc3cccc(Cl)c3)c2cc1OC` [AG1478], which “R. delemar-induced damage of A549 alveolar epithelial cells (LDH assay)” value [3] is on record?
A: greater reduction in damage

Q: With Src Kinase Inhibitor I I as the molecule, how does the “ability of A549 cells to endocytose R. delemar spores” value [1] read?
A: Neither of the inhibitors altered

Q: Which “R. delemar-induced damage with EGF addition (LDH assay)” value ([3]; A549 cells pretreated (and cotreated) with EGF 1 h prior to 24 h infection (FIG. 15)) does the source give for “EGF [epidermal growth factor, EGFR ligand]” here?
A: no increase in damage was observed
